Positions count from the first letter of the chain named. Like-named read-outs stand apart in the source and are kept apart here.
How the values were obtained:
[1] = target: T1, mutant MGL (Homo sapiens, UniProt Q99685, L169S/L176S); assay: MGL ThermoFluor assay - mutant; type: binding
T1 sequence (Q99685 1-303 L169S/L176S): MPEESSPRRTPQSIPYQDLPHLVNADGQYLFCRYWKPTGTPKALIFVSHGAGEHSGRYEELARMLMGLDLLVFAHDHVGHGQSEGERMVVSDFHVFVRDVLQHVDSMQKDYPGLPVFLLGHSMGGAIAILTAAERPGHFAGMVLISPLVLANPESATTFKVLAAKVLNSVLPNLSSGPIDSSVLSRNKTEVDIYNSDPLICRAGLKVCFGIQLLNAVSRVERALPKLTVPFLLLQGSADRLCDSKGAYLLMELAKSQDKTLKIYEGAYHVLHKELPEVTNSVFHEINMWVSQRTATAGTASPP

[2] = target: T2, MGL (Rattus norvegicus, UniProt Q8R431); assay: 2-AG accumulation assay in rat brain homogenate; type: biochemical; conditions: rat brain homogenate, 2-AG accumulation as percent of vehicle; for 2-AG accumulation, % of vehicle control at 1 µM: compound 1 μM, read-out: Rat Brain 2AG % VehCntrl (%) @ 1 μM; for 2-AG accumulation, % of vehicle control at 10 µM: compound 10 μM, read-out: Rat Brain 2AG % VehCntrl (%) @ 10 μM
T2 construct: one g rat brain was homogenized using a Polytron homogenizer; from tissue; host or cells: rat brain homogenate
T2 sequence (Q8R431 1-303): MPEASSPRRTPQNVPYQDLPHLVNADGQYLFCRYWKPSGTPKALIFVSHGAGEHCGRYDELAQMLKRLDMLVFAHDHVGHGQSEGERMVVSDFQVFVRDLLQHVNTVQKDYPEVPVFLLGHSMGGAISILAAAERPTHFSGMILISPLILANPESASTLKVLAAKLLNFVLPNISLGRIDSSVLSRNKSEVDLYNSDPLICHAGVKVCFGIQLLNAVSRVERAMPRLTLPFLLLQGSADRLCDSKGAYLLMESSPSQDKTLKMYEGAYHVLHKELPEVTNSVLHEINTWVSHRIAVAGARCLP

[3] = target: T3, purified wild type MGL (wt-MGLL 6H-11-313) (Homo sapiens, UniProt Q99685)
T3 sequence (Q99685 1-303): T1 sequence (Q99685 1-303 L169S/L176S) with S169L, S176L

[4] = ThermoFluor thermal stability binding assay, read-out: MGL mutant ThermoFluor Kd
[5] = ThermoFluor, compound concentration measured by qNMR, read-out: MGL mutant ThermoFluor qKd (μM) (using qNMR conc.)
[6] = ThermoFluor, compound concentration measured by qNMR, read-out: MGL mutant ThermoFluor qKd (using qNMR conc.)
[7] = ThermoFluor concentration-response, read-out: MGL mutant ThermoFluor Kd

SMILES	2-AG accumulation, % of vehicle control at 1 µM [2] [%]	IC50 [3] [µM]	other results
O=C(c1ccc2c(c1)CCN(Cc1ccccc1)C2)N1CC(N2CCN(C(=O)c3nccs3)CC2)C1 [Cpd 680, 2-Benzyl-6-({3-[4-(1,3-thiazol-2-ylcarbonyl)piperazin-1-yl]azetidin-1-yl}carbonyl)-1,2,3,4-tetrahydroisoquinoline]	356	0.025	Kd [1, 4]: 0.053 µM
Cn1nc(-c2ccccc2)c2cc(C(=O)N3CC(N4CCN(C(=O)c5nccs5)CC4)C3)ccc21 [Cpd 1137, 1-Methyl-3-phenyl-5-({3-[4-(1,3-thiazol-2-ylcarbonyl)piperazin-1-yl]azetidin-1-yl}carbonyl)-1H-indazole]	582	0.026	Kd [1, 7]: 0.01 µM
O=C(c1ccccc1)c1ccc(C(=O)N2CC(N3CCN(C(=O)c4nccs4)CC3)C2)cc1 [Cpd 1017]	307	0.035	Kd [1, 7]: 0.049 µM
O=C(c1nccs1)N1CCN(C2CN(C(=O)c3cccc4oc(-c5ccccc5Cl)nc34)C2)CC1 [Cpd 1173]	133	0.065	Kd [1, 4]: 0.007 µM
O=C(c1ccccc1)N1CCN(C2CN(C(=O)c3sc4ccc(Cl)cc4c3C(F)(F)F)C2)CC1 [Cpd 506]	132	0.048	Kd [1, 7]: 0.059 µM
Cc1ccc(-c2nnc(-c3ccc(C(=O)N4CC(N5CCN(C(=O)c6nccs6)CC5)C4)cc3)o2)cc1 [Cpd 1156]	681	0.041	Kd [1, 7]: 0.09 µM
O=C(c1ccc2c(-c3ccccc3)ncnc2c1)N1CC(N2CCN(C(=O)c3nccs3)CC2)C1 [Cpd 1130]	553	0.022	
Cn1cc(-c2ccccc2)c2ccc(C(=O)N3CC(N4CCN(C(=O)c5cscn5)CC4)C3)cc21 [Cpd 1155]	617	0.041	
O=C(c1ccc(-c2ccc(C(F)(F)F)s2)cc1)N1CCN(C2CN(C(=O)c3cscn3)C2)CC1 [Cpd 1136]	325	0.025	
O=C(c1ccccc1)N1CCN(C2CN(C(=O)c3ccc(-c4ccccc4C(F)(F)F)cc3)C2)CC1 [Cpd 72, 1-(Phenylcarbonyl)-4-(1-{[2′-(trifluoromethyl)biphenyl-4-yl]carbonyl}azetidin-3-yl)piperazine]		0.326	2-AG accumulation, % of vehicle control at 10 µM [2]: 334%
O=C(c1ccc2c(c1)CCCN2C(=O)C1CCC1)N1CC(N2CCN(C(=O)c3nccs3)CC2)C1 [Cpd 364]	581	0.21	
O=C(c1cc(-c2ccccc2)n(-c2ccccc2)n1)N1CC(N2CCN(C(=O)c3nccs3)CC2)C1 [Cpd 1164]	250	0.048	

Continued, in another order:

2-AG accumulation, % of vehicle control at 1 µM [2] [%]	IC50 [3] [µM]	SMILES	other results
346	< 0.005	O=C(c1cc2cc(-c3ccccc3)ccc2o1)N1CC(N2CCN(C(=O)c3nccs3)CC2)C1 [Cpd 1342]	Kd [1, 4]: 0.136 µM
701	0.005	O=C(c1ccc2c(ccn2-c2cc(F)c(F)c(F)c2)c1)N1CC(N2CCN(C(=O)c3cscn3)CC2)C1 [Cpd 1055]	Kd [1, 5]: 0.02 µM
873	< 0.005	O=C(c1cc(F)c2c(ccn2-c2ccc(F)cc2)c1)N1CC(N2CCN(C(=O)c3nccs3)CC2)C1 [Cpd 1350, 7-Fluoro-1-(4-fluorophenyl)-5-({3-[4-(1,3-thiazol-2-ylcarbonyl)piperazin-1-yl]azetidin-1-yl}carbonyl)-1H-indole]	Kd ([1]; compound concentration measured by qNMR, read-out: MGL mutant ThermoFluor qKd (using qNMR conc.)): 0.001 µM
850	0.019	Cc1cccc(-n2ccc3cc(C(=O)N4CC(N5CCN(C(=O)c6nccs6)CC5)C4)ccc32)n1 [Cpd 1126, 1-(6-Methylpyridin-2-yl)-5-({3-[4-(1,3-thiazol-2-ylcarbonyl)piperazin-1-yl]azetidin-1-yl}carbonyl)-1H-indole]	Kd [1, 6]: 0.008 µM
824	< 0.005	O=C(c1ccc2cc(-c3ccccc3)[nH]c2c1)N1CC(N2CCN(C(=O)c3nccs3)CC2)C1 [Cpd 1333]	Kd [1, 6]: 0.04 µM
330	0.019	O=C(c1nccs1)N1CCN(C2CN(C(=O)c3[nH]c4nc(C(F)(F)F)ccc4c3Br)C2)CC1 [Cpd 675]	Kd [1, 6]: 0.025 µM
178	0.01	Cc1c(C(=O)N2CC(N3CCN(C(=O)c4ccccc4)CC3)C2)sc2ccc(C(F)(F)F)cc12 [Cpd 504]	Kd [1, 4]: 0.024 µM
874	< 0.005	O=C(c1ccc2c(ccn2-c2ccc(OC(F)(F)F)cc2)c1)N1CC(N2CCN(C(=O)c3nccs3)CC2)C1 [Cpd 1369]	Kd [1, 5]: 0.002 µM
234	0.022	O=C(c1ccc2c(c1)Sc1ccccc1O2)N1CC(N2CCN(C(=O)c3ccc[nH]3)CC2)C1 [Cpd 678, 1-[1-(Phenoxathiin-2-ylcarbonyl)azetidin-3-yl]-4-(1H-pyrrol-2-ylcarbonyl)piperazine]	Kd [1, 7]: 0.031 µM
798	< 0.005	O=C(c1ccc2c(ccn2-c2cc(F)c(F)c(F)c2)c1)N1CC(N2CCN(C(=O)c3nccs3)CC2)C1 [Cpd 1367]	Kd [1, 4]: 0.002 µM
618	0.006	O=C(c1ccc2c(ccn2-c2ccc(F)cc2F)c1)N1CC(N2CCN(C(=O)c3ccc[nH]3)CC2)C1 [Cpd 1061, 1-(2,4-Difluorophenyl)-5-({3-[4-(1H-pyrrol-2-ylcarbonyl)piperazin-1-yl]azetidin-1-yl}carbonyl)-1H-indole]	
458	0.008	O=C(c1ccc(Cc2ccc(C(F)(F)F)cc2)cc1)N1CC(N2CCN(C(=O)c3cscn3)CC2)C1 [Cpd 999]	
488	0.009	O=C(c1ccc2c(-c3ccc(C(F)(F)F)cc3)ncnc2c1)N1CC(N2CCN(C(=O)c3nccs3)CC2)C1 [Cpd 1086]	
741	< 0.005	Cn1cc(-c2ccc(C(F)(F)F)cc2)c2ccc(C(=O)N3CC(N4CCN(C(=O)c5nccs5)CC4)C3)cc21 [Cpd 1347]	
	< 0.005	O=C(c1ccc(-c2ccc(Cl)c(Cl)c2)cc1)N1CC(N2CCN(C(=O)c3cscn3)CC2)C1 [Cpd 228, 1-{1-[(3′,4′-Dichlorobiphenyl-4-yl)carbonyl]azetidin-3-yl}-4-(1,3-thiazol-4-ylcarbonyl)piperazine]	2-AG accumulation, % of vehicle control at 10 µM [2]: 710%
	< 0.005	O=C(c1ccccc1)N1CCN(C2CN(C(=O)c3ccc(OCc4cccc(Cl)c4Cl)cc3)C2)CC1 [Cpd 381, 1-[1-({4-[(2,3-Dichlorobenzyl)oxy]phenyl}carbonyl)azetidin-3-yl]-4-(phenylcarbonyl)piperazine]	2-AG accumulation, % of vehicle control at 10 µM [2]: 520%
945	< 0.005	O=C(c1ccc2c(c1)CCN(Cc1ccc(C(F)(F)F)cc1)C2)N1CC(N2CCN(C(=O)c3nccs3)CC2)C1 [Cpd 880]	
706	< 0.005	O=C(c1ccc(-c2ccc(Cl)c(Cl)c2)cc1)N1CC(N2CCN(C(=O)c3nccs3)CC2)C1 [Cpd 175, 1-{1-[(3′,4′-Dichlorobiphenyl-4-yl)carbonyl]azetidin-3-yl}-4-(1,3-thiazol-2-ylcarbonyl)piperazine]	2-AG accumulation, % of vehicle control at 0.1 µM ([2]; compound 0.1 μM, read-out: Rat Brain 2AG % VehCntrl (%) @ 0.1 μM): 330%

Source: patent US8362000B2, “Azetidinyl diamides as monoacylglycerol lipase inhibitors” (Janssen Pharmaceutica NV, priority 2009, dated 2013)
